Test systems include OVCAR-5 ovarian; MALME-3M melanoma; UACC-62 melanoma; 786-0 renal; OVCAR-4 ovarian; SN12C renal; HOP-92 NSCLC; TK-10 renal; SNB-75 CNS; RPMI-8226 leukemia.
Common to all, as to assay: NCI anticancer screen, dose series, 48 h

The structures appear in SMILES notation.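 Dose response: 5 concentrations. Exposure: 48 h. Format: 96-well plates. Endpoint: linear interpolation; highest concentration if not reached. Here, GI50 denotes the concentration required for 50% inhibition of growth. At the TGI there is no net growth.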 Where only a bound is given, the exact number is not on record here.

As to `Nc1c(Br)c(=O)[nH]c(=O)n1COCCO`, the TGI in the experiment with OVCAR-5 ovarian, in the experiment on MALME-3M melanoma, with UACC-62 melanoma, in the experiment with 786-0 renal, in the experiment with OVCAR-4 ovarian and with SN12C renal was greater than 100 µM throughout. Besides, the TGI in the experiment with HOP-92 NSCLC, with TK-10 renal and in the experiment on SNB-75 CNS was greater than 100 µM each time.
Turning to `O=c1c2cccc3cccc(c4oc5c6cccc7cccc(c(=O)c5c14)c76)c32`, the TGI in the experiment on OVCAR-5 ovarian is greater than 31.6 µM; in the experiment with MALME-3M melanoma it was 17.9 µM; in the experiment with RPMI-8226 leukemia it was 24.1 µM; in the experiment on UACC-62 melanoma, 17.6 µM; in the experiment on 786-0 renal it was 15.8 µM; in the experiment with SN12C renal, 18.2 µM. Besides, the figures for the TGI in the experiment with HOP-92 NSCLC, in the experiment with TK-10 renal and in the experiment with SNB-75 CNS were 15.2 µM, 17.5 µM and 21.7 µM, respectively.
Turning to `O=C1Nc2ccccc2C1Cc1ccc([N+](=O)[O-])cc1` (centres undefined), the TGI in the experiment on OVCAR-5 ovarian, with RPMI-8226 leukemia, in the experiment with UACC-62 melanoma, in the experiment on 786-0 renal, in the experiment with OVCAR-4 ovarian and with SN12C renal was greater than 100 µM throughout. Moreover, the TGI in the experiment on TK-10 renal and in the experiment with SNB-75 CNS was greater than 100 µM throughout.
On to `N#Cc1cccc(C(=O)Nc2cccc(NC(=O)c3cccc(C#N)c3)c2)c1`, for which the GI50 in the experiment with OVCAR-5 ovarian is greater than 100 µM; in the experiment with RPMI-8226 leukemia it was 52 µM; in the experiment on UACC-62 melanoma, 34.1 µM; in the experiment on 786-0 renal, 33.4 µM; in the experiment on OVCAR-4 ovarian, greater than 100 µM; in the experiment with SN12C renal it was 34.1 µM. The figures for the GI50 in the experiment on HOP-92 NSCLC, in the experiment with TK-10 renal and in the experiment on SNB-75 CNS were 60.4 µM, 52.5 µM and greater than 100 µM, respectively. Further, the TGI with OVCAR-5 ovarian, in the experiment with RPMI-8226 leukemia, with UACC-62 melanoma, in the experiment on 786-0 renal, in the experiment with OVCAR-4 ovarian and in the experiment on SN12C renal was greater than 100 µM throughout. For the same compound, the TGI in the experiment on HOP-92 NSCLC, with TK-10 renal and in the experiment on SNB-75 CNS was greater than 100 µM throughout.
On to `Cc1ccc(/C=C2/SC(Nc3nc(-c4nc(NC5=NC(=O)/C(=C\c6ccc(C)cc6)S5)sc4C)c(C)s3)=NC2=O)cc1`, for which the GI50 in the experiment with OVCAR-5 ovarian is 8.05 µM; in the experiment on RPMI-8226 leukemia, 1.27 µM; in the experiment with UACC-62 melanoma, 0.0759 µM; in the experiment on 786-0 renal, 0.487 µM; in the experiment with SN12C renal, 0.957 µM; in the experiment with HOP-92 NSCLC it was 17.1 µM. In the experiment with TK-10 renal, the GI50 was 0.288 µM. For the same compound, the TGI in the experiment with OVCAR-5 ovarian is greater than 50 µM; with RPMI-8226 leukemia it was greater than 15 µM; in the experiment with UACC-62 melanoma, 1.71 µM; with 786-0 renal, 8.4 µM; with SN12C renal, 18.3 µM; with HOP-92 NSCLC, greater than 47.8 µM. Further, the TGI in the experiment with TK-10 renal came out at 1.21 µM.
For the compound `N=c1c2c(-c3ccccc3)c(-c3ccccc3)n(Cc3ccccc3)c2ncn1CCCO`, the GI50 is 7.27 µM with OVCAR-5 ovarian; 1.55 µM in the experiment on MALME-3M melanoma; 2.86 µM in the experiment on RPMI-8226 leukemia; 1.91 µM in the experiment with UACC-62 melanoma; 1.92 µM in the experiment with 786-0 renal; 1.43 µM in the experiment on OVCAR-4 ovarian. Besides, the results for the GI50 with SN12C renal, with TK-10 renal and in the experiment on SNB-75 CNS were 1.99 µM, 5.37 µM and 1.38 µM, respectively. The TGI in the experiment on OVCAR-5 ovarian was determined as 23.4 µM; with MALME-3M melanoma, 3.84 µM; in the experiment with RPMI-8226 leukemia it was 16 µM; with UACC-62 melanoma it was 14.4 µM; with 786-0 renal, 16.2 µM; in the experiment on OVCAR-4 ovarian, 13.4 µM. Moreover, the TGI is 19.6 µM in the experiment on SN12C renal, 19.3 µM in the experiment with TK-10 renal and 8.43 µM in the experiment with SNB-75 CNS.
Consider `Cc1ccc2c(c1C)-c1c(ccc(C)c1C)C(=O)C2=O`, for which the TGI in the experiment with OVCAR-5 ovarian was determined as 3.42 µM; in the experiment with MALME-3M melanoma, 1.83 µM; with RPMI-8226 leukemia, 0.559 µM; in the experiment with UACC-62 melanoma, 1.68 µM; with 786-0 renal, 1.8 µM; in the experiment on OVCAR-4 ovarian, 0.554 µM. The TGI was 2.73 µM in the experiment on SN12C renal, 5.02 µM in the experiment with HOP-92 NSCLC and 9.11 µM in the experiment with TK-10 renal.
On to `C=C1C(=O)OC2C1CC[C@H](C)C13OC(=O)CC1[C@@]23C` (some centres undefined), for which the TGI in the experiment on OVCAR-5 ovarian, with MALME-3M melanoma, in the experiment with RPMI-8226 leukemia, with UACC-62 melanoma, in the experiment on 786-0 renal and in the experiment with SN12C renal was greater than 100 µM throughout. For the same compound, the TGI with HOP-92 NSCLC, with TK-10 renal and in the experiment with SNB-75 CNS was greater than 100 µM in each case.
As to `NC(=NC1CCCCCCC1)c1ccc(N2CCN(c3ccc(C(N)=NC4CCCCCCC4)cc3)CC2)cc1`, the GI50 with OVCAR-5 ovarian is 14.9 µM; in the experiment with RPMI-8226 leukemia, 25.8 µM; with UACC-62 melanoma, 12.6 µM; with 786-0 renal, 18.9 µM; with OVCAR-4 ovarian, 24.6 µM; in the experiment with SN12C renal, 7.62 µM. Moreover, the GI50 in the experiment on HOP-92 NSCLC is 25.1 µM; in the experiment with TK-10 renal, 10.9 µM; in the experiment with SNB-75 CNS it was 3.7 µM. In addition, the TGI with OVCAR-5 ovarian was 39 µM; with RPMI-8226 leukemia it was greater than 100 µM; in the experiment on UACC-62 melanoma, 28.3 µM; with 786-0 renal, greater than 100 µM; with OVCAR-4 ovarian, greater than 100 µM; with SN12C renal it was 69.3 µM. Also, the TGI amounted to 79.9 µM with HOP-92 NSCLC, 34.2 µM with TK-10 renal and 15.7 µM in the experiment on SNB-75 CNS.
Consider `CCCCCCCCC(=O)N(C)C1C2CN3CCC(O2)C13` (centres undefined), for which the TGI in the experiment on OVCAR-5 ovarian, in the experiment with MALME-3M melanoma, with RPMI-8226 leukemia, in the experiment on UACC-62 melanoma, in the experiment on 786-0 renal and with OVCAR-4 ovarian was greater than 100 µM in each case. Further, the TGI in the experiment on SN12C renal, with TK-10 renal and in the experiment on SNB-75 CNS was greater than 100 µM throughout.
As for `COc1ccc(-c2nnc(SCC(=O)Nc3ccc(/C(C)=N\O)cc3)n2-c2ccccc2)cc1OC`, the GI50 is greater than 100 µM in the experiment with OVCAR-5 ovarian; 17.2 µM in the experiment with MALME-3M melanoma; greater than 100 µM in the experiment with RPMI-8226 leukemia; greater than 100 µM with UACC-62 melanoma; 14.9 µM in the experiment with 786-0 renal; greater than 100 µM in the experiment on OVCAR-4 ovarian. Besides, the GI50 is 26.2 µM in the experiment with SN12C renal, 2.12 µM in the experiment with HOP-92 NSCLC and 11.3 µM in the experiment with TK-10 renal. Moreover, the TGI with OVCAR-5 ovarian, with MALME-3M melanoma, in the experiment on RPMI-8226 leukemia, in the experiment with UACC-62 melanoma, with 786-0 renal and in the experiment with OVCAR-4 ovarian was greater than 100 µM in each case. The TGI in the experiment on SN12C renal was greater than 100 µM; with HOP-92 NSCLC, 6.42 µM; in the experiment on TK-10 renal, 52.7 µM.

Values taken from PubChem BioAssay (NCI).
